Source: patent US7659113B2 (priority 2002, dated 2010)
“Also recorded” adds a separate entry of the source.

Key:
[1] = tested on: VSV-G pseudotyped SIN-6.1CZW vector; assay type: cell-based
influenza virus = details: cited from earlier work
wild type FPV M2 = wild type FPV M2 (Influenza A virus, UniProt P03492); assay: cell-based; assay type: cell-based
[2] = tested on: FPV HA/M2 pseudotyped SIN-6.1CZW vector; assay type: cell-based
VSV = details: cited from earlier work
[3] = tested on: VSV-G pseudotyped SIN-6.1CZW vector; assay type: cell-based; remark: listed apart in the source

Chain of wild type FPV M2 (P03492 whole entry, looked up): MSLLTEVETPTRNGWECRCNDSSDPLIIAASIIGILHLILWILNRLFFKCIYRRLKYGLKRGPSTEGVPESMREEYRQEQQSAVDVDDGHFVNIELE

## NC12CC3CC(CC(C3)C1)C2 [amantadine]
[1]
  effect on pseudotyping of SIN-6.1CZW by VSV-G: did not affect
Influenza virus
  inhibition of influenza virus replication in cell culture: effective inhibitor
Wild type FPV M2
  effect on vector production: inhibits the augmentation of HA pseudotyping by M2; also recorded: potent dose-dependent effect
Wild type FPV M2; read-out: inhibition of M2 augmented vector production
  inhibition at 5 µM: 70%
[2]
  effect on gene transfer step of HA pseudotyped vector: affected the gene transfer step; also recorded: Higher doses were required to inhibit transduction than to inhibit vector production
VSV
  VSV replication, sensitivity to amantadine: refractory
[3]
  effect on gene transfer by VSV-G pseudotyped vector: did not affect gene transfer
